Measurements as given in the Kinase Knowledgebase extract (Sharma et al. 2016).

Legend:
[1] = biological target: PIK3CG (human) (UniProt P48736); assay: Enzyme Assay
[2] = biological target: PIK3CB (Human) (UniProt P42338); assay: Enzyme Assay
[3] = biological target: PIK3CD (Human) (UniProt O00329); assay: Enzyme Assay
[4] = biological target: PIK3CA (human) (UniProt P42336); assay: Enzyme Assay
[5] = biological target: PIK3CD (Human) (UniProt O00329); assay: Cell-Based Assay; conditions: raji

Sequence of PIK3CD (Human) (O00329 whole entry, looked up): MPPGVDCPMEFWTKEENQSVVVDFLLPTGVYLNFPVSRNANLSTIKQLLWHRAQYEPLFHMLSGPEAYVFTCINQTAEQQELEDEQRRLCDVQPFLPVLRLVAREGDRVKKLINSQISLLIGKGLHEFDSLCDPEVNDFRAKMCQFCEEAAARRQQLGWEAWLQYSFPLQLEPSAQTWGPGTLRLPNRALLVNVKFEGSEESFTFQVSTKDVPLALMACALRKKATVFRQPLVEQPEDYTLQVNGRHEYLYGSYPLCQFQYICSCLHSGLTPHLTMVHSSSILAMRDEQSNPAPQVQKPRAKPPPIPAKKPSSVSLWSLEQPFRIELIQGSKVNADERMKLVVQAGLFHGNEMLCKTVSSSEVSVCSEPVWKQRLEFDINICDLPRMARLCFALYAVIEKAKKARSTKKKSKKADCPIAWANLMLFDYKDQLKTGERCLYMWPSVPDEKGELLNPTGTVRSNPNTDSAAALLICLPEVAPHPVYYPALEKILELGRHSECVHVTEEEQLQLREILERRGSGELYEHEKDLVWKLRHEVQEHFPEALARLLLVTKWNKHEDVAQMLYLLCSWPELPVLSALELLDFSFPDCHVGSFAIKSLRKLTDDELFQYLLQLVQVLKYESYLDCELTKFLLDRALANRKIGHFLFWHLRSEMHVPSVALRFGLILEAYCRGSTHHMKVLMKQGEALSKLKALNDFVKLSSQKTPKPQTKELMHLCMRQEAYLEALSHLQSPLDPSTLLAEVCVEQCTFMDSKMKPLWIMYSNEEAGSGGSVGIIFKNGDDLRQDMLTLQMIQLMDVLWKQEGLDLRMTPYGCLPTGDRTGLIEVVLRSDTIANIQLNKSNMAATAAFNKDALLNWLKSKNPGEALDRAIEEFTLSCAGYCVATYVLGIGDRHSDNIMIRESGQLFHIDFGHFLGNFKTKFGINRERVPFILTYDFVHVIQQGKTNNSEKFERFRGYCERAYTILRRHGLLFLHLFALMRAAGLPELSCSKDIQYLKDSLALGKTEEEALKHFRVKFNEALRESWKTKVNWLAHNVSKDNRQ
Sequence of PIK3CB (Human) (P42338 whole entry, looked up): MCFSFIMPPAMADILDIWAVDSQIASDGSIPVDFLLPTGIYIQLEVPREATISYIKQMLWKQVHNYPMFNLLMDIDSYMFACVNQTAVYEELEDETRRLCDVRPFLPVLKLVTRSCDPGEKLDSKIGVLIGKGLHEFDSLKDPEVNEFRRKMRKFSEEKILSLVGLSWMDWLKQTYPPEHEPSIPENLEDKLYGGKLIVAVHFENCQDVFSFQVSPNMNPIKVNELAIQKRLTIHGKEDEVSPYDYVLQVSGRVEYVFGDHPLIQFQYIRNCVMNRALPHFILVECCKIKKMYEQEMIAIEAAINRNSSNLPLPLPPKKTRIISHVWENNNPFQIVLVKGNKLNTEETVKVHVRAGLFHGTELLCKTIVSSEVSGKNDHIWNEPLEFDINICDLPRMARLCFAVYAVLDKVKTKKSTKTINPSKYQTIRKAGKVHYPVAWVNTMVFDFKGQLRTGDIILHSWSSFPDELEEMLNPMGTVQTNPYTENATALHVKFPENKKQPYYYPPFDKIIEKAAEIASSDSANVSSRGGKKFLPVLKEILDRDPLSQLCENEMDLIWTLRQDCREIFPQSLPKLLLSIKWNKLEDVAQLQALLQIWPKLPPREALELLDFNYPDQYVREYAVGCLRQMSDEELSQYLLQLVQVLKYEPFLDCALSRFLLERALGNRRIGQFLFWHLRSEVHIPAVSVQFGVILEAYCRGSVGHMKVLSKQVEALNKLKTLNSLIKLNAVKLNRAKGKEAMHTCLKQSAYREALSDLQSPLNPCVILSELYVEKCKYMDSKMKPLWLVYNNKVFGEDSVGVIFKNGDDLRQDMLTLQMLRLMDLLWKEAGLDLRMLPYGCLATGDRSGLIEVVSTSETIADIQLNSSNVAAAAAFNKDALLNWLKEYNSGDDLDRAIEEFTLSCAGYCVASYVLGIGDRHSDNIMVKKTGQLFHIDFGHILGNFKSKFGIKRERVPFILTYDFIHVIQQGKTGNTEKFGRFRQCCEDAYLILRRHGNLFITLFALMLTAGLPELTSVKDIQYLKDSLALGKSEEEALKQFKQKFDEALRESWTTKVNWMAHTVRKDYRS
Sequence of PIK3CG (human) (P48736 whole entry, looked up): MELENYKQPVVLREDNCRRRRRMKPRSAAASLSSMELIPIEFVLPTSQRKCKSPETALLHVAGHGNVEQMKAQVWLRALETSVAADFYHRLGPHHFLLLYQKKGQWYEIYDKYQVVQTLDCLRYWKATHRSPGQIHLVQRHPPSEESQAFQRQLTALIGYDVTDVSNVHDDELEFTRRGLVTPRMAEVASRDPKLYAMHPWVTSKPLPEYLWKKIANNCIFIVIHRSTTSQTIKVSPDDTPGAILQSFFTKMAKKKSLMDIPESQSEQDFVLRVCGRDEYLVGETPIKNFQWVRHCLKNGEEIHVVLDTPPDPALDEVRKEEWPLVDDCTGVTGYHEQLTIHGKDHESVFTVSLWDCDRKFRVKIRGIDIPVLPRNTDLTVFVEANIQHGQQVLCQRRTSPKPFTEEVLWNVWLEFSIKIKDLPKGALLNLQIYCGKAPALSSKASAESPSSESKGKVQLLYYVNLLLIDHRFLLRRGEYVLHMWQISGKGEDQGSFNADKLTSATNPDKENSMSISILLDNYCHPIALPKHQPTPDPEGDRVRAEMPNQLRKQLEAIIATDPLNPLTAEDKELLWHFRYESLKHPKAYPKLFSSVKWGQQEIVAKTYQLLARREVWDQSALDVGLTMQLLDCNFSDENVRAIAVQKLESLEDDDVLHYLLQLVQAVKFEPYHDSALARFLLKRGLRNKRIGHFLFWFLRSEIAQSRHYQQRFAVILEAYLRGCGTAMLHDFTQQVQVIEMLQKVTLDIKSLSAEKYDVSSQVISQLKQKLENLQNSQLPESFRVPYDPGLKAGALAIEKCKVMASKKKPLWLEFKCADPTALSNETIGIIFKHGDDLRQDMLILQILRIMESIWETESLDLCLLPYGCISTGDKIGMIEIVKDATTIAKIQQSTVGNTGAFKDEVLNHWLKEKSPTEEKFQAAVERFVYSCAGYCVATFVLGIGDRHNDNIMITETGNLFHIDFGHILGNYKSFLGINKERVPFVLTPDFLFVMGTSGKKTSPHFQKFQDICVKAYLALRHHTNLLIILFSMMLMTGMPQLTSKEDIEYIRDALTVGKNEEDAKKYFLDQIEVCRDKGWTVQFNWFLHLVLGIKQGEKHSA
Sequence of PIK3CA (human) (P42336 whole entry, looked up): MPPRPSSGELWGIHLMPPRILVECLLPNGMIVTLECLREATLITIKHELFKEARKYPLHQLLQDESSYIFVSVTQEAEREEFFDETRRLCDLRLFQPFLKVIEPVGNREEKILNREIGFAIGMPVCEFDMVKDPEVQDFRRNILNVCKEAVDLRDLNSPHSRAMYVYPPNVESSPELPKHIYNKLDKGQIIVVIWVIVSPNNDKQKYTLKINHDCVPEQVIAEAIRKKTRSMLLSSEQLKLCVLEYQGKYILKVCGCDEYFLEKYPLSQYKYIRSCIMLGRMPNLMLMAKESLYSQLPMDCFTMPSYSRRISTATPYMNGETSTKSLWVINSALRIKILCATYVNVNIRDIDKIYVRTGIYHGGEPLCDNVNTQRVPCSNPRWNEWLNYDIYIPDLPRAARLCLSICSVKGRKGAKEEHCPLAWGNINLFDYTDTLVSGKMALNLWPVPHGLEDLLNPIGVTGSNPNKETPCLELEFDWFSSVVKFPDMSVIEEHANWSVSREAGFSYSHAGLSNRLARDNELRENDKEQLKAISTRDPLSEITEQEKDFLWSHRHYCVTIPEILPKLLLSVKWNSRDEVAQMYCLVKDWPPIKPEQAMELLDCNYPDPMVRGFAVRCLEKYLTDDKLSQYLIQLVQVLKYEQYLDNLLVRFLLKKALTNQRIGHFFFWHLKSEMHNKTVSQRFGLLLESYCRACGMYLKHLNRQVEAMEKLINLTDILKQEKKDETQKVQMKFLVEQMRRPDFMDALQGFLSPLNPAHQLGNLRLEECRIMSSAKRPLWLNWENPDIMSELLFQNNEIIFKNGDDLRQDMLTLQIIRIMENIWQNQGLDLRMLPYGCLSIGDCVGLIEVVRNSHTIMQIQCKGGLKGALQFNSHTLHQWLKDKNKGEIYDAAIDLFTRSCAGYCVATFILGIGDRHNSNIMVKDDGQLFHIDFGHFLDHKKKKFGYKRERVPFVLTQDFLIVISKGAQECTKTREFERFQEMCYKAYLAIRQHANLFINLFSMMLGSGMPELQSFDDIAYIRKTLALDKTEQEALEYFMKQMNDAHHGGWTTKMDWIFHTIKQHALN

IC50 [1] | IC50 [2] | IC50 [3] | IC50 [4] | IC50 [5] | Compound
≥ 10000 nM | ≥ 10000 nM | ≥ 10000 nM | ≥ 10000 nM | – | CC(C)c1ccnc2c(C(=O)N[C@@H](C)c3cc4cccc(Cl)c4c(=O)n3-c3ccccc3)c(N)nn12
≥ 10000 nM | ≥ 10000 nM | < 100 nM | ≥ 10000 nM | – | CC(=O)N(C)Cc1cccc2cc([C@H](C)NC(=O)c3c(N)nn4cccnc34)n(-c3ccccc3)c(=O)c12
≥ 10000 nM | ≥ 10000 nM | ≥ 10000 nM | ≥ 10000 nM | – | C[C@H](NC(=O)c1c(N)nn2cccnc12)c1cc2cccc(/C=C/c3ccccc3)c2c(=O)n1-c1ccccc1
≥ 10000 nM | ≥ 10000 nM | < 100 nM | ≥ 10000 nM | – | C[C@H](NC(=O)c1c(N)nn2cccnc12)c1cc2cccc(CN(C)C)c2c(=O)n1-c1ccccc1
< 100 nM | 100 to 1000 nM | 100 to 1000 nM | 100 to 1000 nM | < 100 nM | C#Cc1cccc2cc([C@H](C)NC(=O)c3c(N)nn4cccnc34)n(-c3ccccc3)c(=O)c12
≥ 10000 nM | ≥ 10000 nM | ≥ 10000 nM | ≥ 10000 nM | – | C[C@H](NC(=O)c1c(N)nn2cccnc12)c1cc2cccc(N3CCN(C)CC3)c2c(=O)n1-c1ccccc1
< 100 nM | 100 to 1000 nM | 100 to 1000 nM | 100 to 1000 nM | < 100 nM | C[C@H](NC(=O)c1c(N)nn2cccnc12)c1cc2cccc(C#CCNC(=O)[C@@H]3CCC(=O)O3)c2c(=O)n1-c1ccccc1
≥ 10000 nM | ≥ 10000 nM | ≥ 10000 nM | ≥ 10000 nM | – | CC(C)Nc1cccc2cc([C@H](C)NC(=O)c3c(N)nn4cccnc34)n(-c3ccccc3)c(=O)c12
< 100 nM | ≥ 10000 nM | 100 to 1000 nM | ≥ 10000 nM | < 100 nM | C[C@H](NC(=O)c1c(N)nn2cccnc12)c1cc2cccc(-c3ccc(=O)n(C)c3)c2c(=O)n1-c1ccccc1
≥ 10000 nM | ≥ 10000 nM | ≥ 10000 nM | ≥ 10000 nM | – | C[C@H](NC(=O)c1c(N)nn2cccnc12)c1cc2cccc(NC3CCCCC3)c2c(=O)n1-c1ccccc1
≥ 10000 nM | ≥ 10000 nM | ≥ 10000 nM | ≥ 10000 nM | – | COc1cc(-c2csc3cc([C@H](C)NC(=O)c4c(N)nn5cccnc45)n(-c4ccccc4)c(=O)c23)ccn1
< 100 nM | < 100 nM | < 100 nM | < 100 nM | < 100 nM | C[C@H](NC(=O)c1c(N)nn2ccc(-c3cccc(S(C)(=O)=O)c3)nc12)c1cc2cccc(Cl)c2c(=O)n1-c1ccccc1

The remaining lines, values behind:

Compound | IC50 [1] | IC50 [2] | IC50 [3] | IC50 [4] | IC50 [5]
C[C@H](NC(=O)c1nc(-c2cccc(S(=O)(=O)NC3CC3)c2)cnc1N)c1cc2cccc(Cl)c2c(=O)n1C | < 100 nM | < 100 nM | 100 to 1000 nM | 100 to 1000 nM | < 100 nM
C[C@H](NC(=O)c1c(N)nn2cccnc12)c1nn2ccc(-c3cnn(C)c3)c2c(=O)n1-c1ccccc1 | ≥ 10000 nM | ≥ 10000 nM | ≥ 10000 nM | ≥ 10000 nM | –
C[C@H](NC(=O)c1nc(C#N)cnc1N)c1cc2cccc(Cl)c2c(=O)n1-c1ccccc1 | 100 to 1000 nM | 100 to 1000 nM | 100 to 1000 nM | ≥ 10000 nM | < 100 nM
C[C@H](NC(=O)c1c(N)nn2cccnc12)c1cc2cccc(Cl)c2c(=O)n1C1CC1 | 100 to 1000 nM | < 100 nM | 100 to 1000 nM | 100 to 1000 nM | < 100 nM
C[C@H](NC(=O)c1c(N)nn2cccnc12)c1nn2ccc(Cl)c2c(=O)n1-c1ccccc1 | ≥ 10000 nM | ≥ 10000 nM | ≥ 10000 nM | ≥ 10000 nM | –
C[C@H](NC(=O)c1nc(-c2cncc(NS(C)(=O)=O)c2)cnc1N)c1cc2cccc(Cl)c2c(=O)n1-c1ccccc1 | < 100 nM | < 100 nM | 100 to 1000 nM | 100 to 1000 nM | 100 to 1000 nM
C[C@H](NC(=O)c1nc(-c2cncc(NS(C)(=O)=O)c2)cnc1N)c1cc2cccc(Cl)c2c(=O)n1C1CC1 | < 100 nM | < 100 nM | < 100 nM | < 100 nM | –
C[C@H](NC(=O)c1nc(-c2cccc(NS(C)(=O)=O)c2)cnc1N)c1cc2cccc(Cl)c2c(=O)n1C | < 100 nM | < 100 nM | 100 to 1000 nM | 100 to 1000 nM | < 100 nM
C[C@H](NC(=O)c1c(N)nn2cccnc12)c1cc2cccc(Cl)c2c(=O)n1CCN(C)S(C)(=O)=O | < 100 nM | 100 to 1000 nM | 100 to 1000 nM | 100 to 1000 nM | < 100 nM
CC(=O)Nc1ncc(-c2cccc(NS(C)(=O)=O)c2)nc1C(=O)N[C@@H](C)c1cc2cccc(Cl)c2c(=O)n1C | ≥ 10000 nM | ≥ 10000 nM | ≥ 10000 nM | ≥ 10000 nM | –
C[C@H](NC(=O)c1nc(-c2cccc(S(=O)(=O)N3CCOCC3)c2)cnc1N)c1cc2cccc(Cl)c2c(=O)n1-c1ccccc1 | ≥ 10000 nM | ≥ 10000 nM | ≥ 10000 nM | ≥ 10000 nM | –
C[C@H](NC(=O)c1cc(-c2cccc(NS(C)(=O)=O)c2)cnc1N)c1cc2cccc(Cl)c2c(=O)n1-c1ccccc1 | ≥ 10000 nM | ≥ 10000 nM | ≥ 10000 nM | ≥ 10000 nM | –
C[C@H](NC(=O)c1c(N)nn2c1NCCC2)c1cc2cccc(Cl)c2c(=O)n1-c1ccccc1 | ≥ 10000 nM | ≥ 10000 nM | ≥ 10000 nM | ≥ 10000 nM | –
Nc1nn2cccnc2c1C(=O)NCc1cc2cccc(Cl)c2c(=O)n1-c1ccccc1 | ≥ 10000 nM | ≥ 10000 nM | ≥ 10000 nM | ≥ 10000 nM | –
COc1cccc(-c2cnc(N)c(C(=O)N[C@@H](C)c3cc4cccc(Cl)c4c(=O)n3-c3ccccc3)n2)c1 | ≥ 10000 nM | ≥ 10000 nM | ≥ 10000 nM | ≥ 10000 nM | –
C[C@H](NC(=O)c1nc(-c2cccc(S(C)(=O)=O)c2)c(N)nc1N)c1cc2cccc(Cl)c2c(=O)n1-c1ccccc1 | < 100 nM | < 100 nM | 100 to 1000 nM | < 100 nM | < 100 nM
C[C@H](NC(=O)c1nccnc1N)c1cc2cccc(Cl)c2c(=O)n1-c1ccc(F)cc1 | 100 to 1000 nM | 100 to 1000 nM | 100 to 1000 nM | ≥ 10000 nM | < 100 nM
CC(C)Oc1ccc(-c2cnc(N)c(C(=O)N[C@@H](C)c3cc4cccc(Cl)c4c(=O)n3-c3ccccc3)n2)cc1Cl | – | ≥ 10000 nM | ≥ 10000 nM | ≥ 10000 nM | ≥ 10000 nM
